Results: patent publication EP0738727B1, “1,4-BENZOXAZINE-2-ACETIC ACID COMPOUND, PROCESS FOR PRODUCING THE SAME, AND USE THEREOF” (Senju Pharmaceutical Co., Ltd., priority 1994, dated 1995)
Marks after values point to notes of the source that are not given here. Each block holds one molecule with its values, some of them ahead of it.

Key:
aldose reductase = target: T1, aldose reductase (Sus scrofa, UniProt P80276); assay: Aldose reductase inhibitory action (method of S. Hayman et al., absorbance change at 340 nm); format: biochemical; settings: swine lens enzyme, 3 mM dl-glyceraldehyde, 0.1 mM NADPH, pH 6.2, 25°C
T1 construct: swine lenses freeze-stored at -80°C were homogenized with distilled water and centrifuged at 10,000 G for 15 minutes; from tissue; host or cells: swine lens
Procedure: An aldose reductase enzyme standard product was prepared from swine lens according to the method of S. Hayman et al. [Journal of Biological Chemistry, 240, 877-882 (1965)]. That is, swine lenses freeze-stored at -80°C were homogenized with distilled water and centrifuged at 10,000 G for 15 minutes. The supernatant was prepared into a 40% ammonium sulfate solution and subjected to centrifugation at 10,000 G for 10 minutes. The supernatant obtained was dialyzed overnight against a 0.05 M sodium chloride solution to give a dialyzed solution, which was used as an enzyme standard product.
The activity of aldose reductase was determined by the above-mentioned method of S. Hayman et al. That is, the above-mentioned enzyme solution (25 µl) and a drug solution (25 µl) dissolved in 1% DMSO at various concentrations were added to a 40 mM phosphate buffer (200 µl, pH 6.2) containing, at final concentrations, 0.4 M lithium sulfate, 0.1 mM NADPH (reduced type nicotinamide adenine dinucleotide phosphate) and 3 mM dl-glyceraldehyde as a substrate. The mixture was allowed to react at 25°C for 2 minutes and the changes in absorbance at 340 nm were determined with COBAS FARA II (manufactured by Roche). The changes in absorbance when 1% DMSO was added instead of the drug solution was taken as 100%, based on which 50% inhibition concentration (IC50) was calculated and shown in Table 1. […] The test drug number indicates the example number to be mentioned later. IC50 (M) means the concentration of the drug at which the aldose reductase activity is inhibited by 50% Table 1

[1] = test system: sorbitol accumulation in tissues; assay: Inhibitory action on sorbitol accumulation in tissues of rats with experimental (streptozotocin) diabetes; format: in vivo, Sprague-Dawley rats; settings: measured 3 hours after final administration, control taken as 100%; for Sorbitol accumulation (%) nerve: sciatic nerve
Procedure: Sprague-Dawley rats (male, 6 weeks old, 5-6 per group) were fasted for 18 hours and injected with streptozotocin (SIGMA, 60 mg/kg) via the tail vein under etherization to prepare rats with diabetes.
The various compounds were orally administered at 4, 8 and 24 hours after the injection of streptozotocin, at 10 mg/kg or 30 mg/kg as a 0.5% carboxymethylcellulose suspension. During the administrations, the rats were raised under free access to feed and water, and the sorbitol content of the tissues (erythrocytes, sciatic nerve, lens) was determined 3 hours after the final administration, according to the enzyme method of H.Y. Bergmeyer et al. [Methods of Enzymatic Analysis, vol. 3, 1323-1330 (1974)] with the use of SDH (sorbitol dehydrogenase) and NAD (β-nicotinamide adenine dinucleotide). The results (sorbitol accumulation) are expressed in percent (%) relative to the value of a control group administered with 0.5% carboxymethylcellulose solution (solvent) instead of the drug, which was taken as 100%.

ICR mice = assay: Acute toxicity after a single oral dose in mice; format: in vivo; settings: 300 mg/kg orally, male ICR mice, observation for 14 days
Procedure: Normal ICR mice (male, 7 weeks old, 5 per group) were fasted for 18 hours and the compound (300 mg/kg) of Example 33 was orally administered as a 0.5% carboxymethylcellulose suspension. To the control group, a 0.5% carboxymethylcellulose solution alone was orally administered, and observation was continued for 14 days thereafter, during which period the mice were allowed to take feed and water freely.

[2] = 10 mg/kg orally at 4, 8 and 24 hours after streptozotocin
[3] = 30 mg/kg orally at 4, 8 and 24 hours after streptozotocin

- IC50 (aldose reductase): 9.1 nM
Compound: Cc1ccc2c(c1)N(Cc1nc3c(F)c(F)cc(F)c3s1)C(=O)C(CC(=O)O)O2 (stereo not drawn) [Example 35, 2-[4-(4,5,7-trifluorobenzothiazol-2-yl)methyl-6-methyl-3,4-dihydro-3-oxo-2H-1,4-benzoxazin-2-yl] acetic acid]

Compound: O=C(O)CC1Oc2cc(F)ccc2N(Cc2nc3c(F)c(F)cc(F)c3s2)C1=O (stereo not drawn) [Example 44, 2-[7-fluoro-4-(4,5,7-trifluorobenzothiazol-2-yl)methyl-3,4-dihydro-3-oxo-2H-1,4-benzoxazin-2-yl]acetic acid]
- Sorbitol accumulation (%) erythrocytes [1, 2]: 25.9** %
- Sorbitol accumulation (%) lens [1, 2]: 52.0** %
- Sorbitol accumulation (%) nerve [1, 2]: 4.7 ** %

- IC50 (aldose reductase): 8.6 nM
Compound: O=C(O)CC1Oc2ccccc2N(Cc2nc3cc(Cl)ccc3s2)C1=O (stereo not drawn) [Example 25, 2-[4-(5-chlorobenzothiazol-2-yl)methyl-3,4-dihydro-3-oxo-2H-1,4-benzoxazin-2-yl]acetic acid]

Compound: CC(C)c1cccc2c1OC(C(C)C)C(=S)N2CC(=O)O (stereo not drawn) [Compound A, 3,4-dihydro-2,8-diisopropyl-3-thioxo-2H-1,4-benzoxazine-4-acetic acid, reference compound]
- Sorbitol accumulation (%) erythrocytes [1, 3]: 53.7* %
- Sorbitol accumulation (%) lens [1, 3]: 87.3%
- Sorbitol accumulation (%) nerve [1, 3]: 54.9** %

Compound: O=C(O)CC1Oc2ccccc2N(Cc2nc3ccc(F)c(F)c3s2)C1=O (stereo not drawn) [Example 33, 2-[4-(6,7-difluorobenzothiazol-2-yl)methyl-3,4-dihydro-3-oxo-2H-1,4-benzoxazin-2-yl]acetic acid]
- death (ICR mice): no case of death
- weights (ICR mice; compared with control group): showed transition in the same manner as in the control group

- IC50 (aldose reductase): 9.6 nM
Compound: O=C(O)CC1Oc2ccc(F)cc2N(Cc2nc3c(F)c(F)ccc3s2)C1=O (stereo not drawn) [Example 26, 2-[6-fluoro-4-(4,5-difluorobenzothiazol-2-yl)methyl-3,4-dihydro-3-oxo-2H-1,4-benzoxazin-2-yl]acetic acid]

Compound: O=C(O)CC1Oc2cc(F)ccc2N(Cc2nc3c(F)c(F)ccc3s2)C1=O (stereo not drawn) [Example 45, 2-[7-fluoro-4-(4,5-difluorobenzothiazol-2-yl)methyl-3,4-dihydro-3-oxo-2H-1,4-benzoxazin-2-yl]acetic acid]
- Sorbitol accumulation (%) erythrocytes [1, 2]: 32.4** %
- Sorbitol accumulation (%) lens [1, 2]: 71.8* %
- Sorbitol accumulation (%) nerve [1, 2]: 56.8** %

Compound: O=C(O)CC1Oc2ccccc2N(Cc2nc3cc(F)cc(F)c3s2)C1=O (stereo not drawn) [Example 32, 2-[4-(5,7-difluorobenzothiazol-2-yl)methyl-3,4-dihydro-3-oxo-2H-1,4-benzoxazin-2-yl]acetic acid]
- Sorbitol accumulation (%) erythrocytes [1, 2]: 27.2** %
- Sorbitol accumulation (%) lens [1, 2]: 39.1** %
- Sorbitol accumulation (%) nerve [1, 2]: 11.4** %

- IC50 (aldose reductase): 9.9 nM
Compound: O=C(O)CC1Oc2ccc(Cl)cc2N(Cc2nc3c(F)c(F)ccc3s2)C1=O (stereo not drawn) [Example 39, 2-[6-chloro-4-(4,5-difluorobenzothiazol-2-yl)methyl-3,4-dihydro-3-oxo-2H-1,4-benzoxazin-2-yl]acetic acid]

- IC50 (aldose reductase): 9.9 nM
Compound: O=C(O)CC1Oc2ccccc2N(Cc2nc3c(Cl)c(Cl)ccc3s2)C1=O (stereo not drawn) [Example 34, 2-[4-(4,5-dichlorobenzothiazol-2-yl)methyl-3,4-dihydro-3-oxo-2H-1,4-benzoxazin-2-yl]acetic acid]

Compound: Cc1ccc2c(c1)OC(CC(=O)O)C(=O)N2Cc1nc2cc(F)cc(F)c2s1 (stereo not drawn) [Example 43, 2-[4-(5,7-difluorobenzothiazol-2-yl)methyl-7-methyl-3,4-dihydro-3-oxo-2H-1,4-benzoxazin-2-yl]acetic acid]
- Sorbitol accumulation (%) erythrocytes [1, 2]: 34.9** %
- Sorbitol accumulation (%) lens [1, 2]: 100.9%
- Sorbitol accumulation (%) nerve [1, 2]: 60.6** %

- IC50 (aldose reductase): 9.2 nM
Compound: Cc1ccc2c(c1)N(Cc1nc3c(F)c(F)ccc3s1)C(=O)C(CC(=O)O)O2 (stereo not drawn) [Example 36, 2-[4-(4,5-difluorobenzothiazol-2-yl)methyl-6-methyl-3,4-dihydro-3-oxo-2H-1,4-benzoxazin-2-yl]acetic acid]
- Sorbitol accumulation (%) erythrocytes [1, 2]: 17.3** %
- Sorbitol accumulation (%) lens [1, 2]: 60.7* %
- Sorbitol accumulation (%) nerve [1, 2]: 23.5** %

- IC50 (aldose reductase): 9.9 nM
Compound: O=C(O)CC1Oc2ccc(F)cc2N(Cc2nc3cc(F)cc(F)c3s2)C1=O (stereo not drawn) [Example 27, 2-[6-fluoro-4-(5,7-difluorobenzothiazol-2-yl)methyl-3,4-dihydro-3-oxo-2H-1,4-benzoxazin-2-yl]acetic acid]

Compound: O=C(O)CC1Oc2ccc(F)cc2N(Cc2nc3c(Cl)c(Cl)ccc3s2)C1=O (stereo not drawn) [Example 28, 2-[4-(4,5-dichlorobenzothiazol-2-yl)methyl-6-fluoro-3,4-dihydro-3-oxo-2H-1,4-benzoxazin-2-yl]acetic acid]
- Sorbitol accumulation (%) erythrocytes [1, 2]: 16.3** %
- Sorbitol accumulation (%) lens [1, 2]: 89.3%
- Sorbitol accumulation (%) nerve [1, 2]: 56.0** %

Compound: O=C(O)CC1Oc2ccc(Cl)cc2N(Cc2nc3c(F)c(F)cc(F)c3s2)C1=O (stereo not drawn) [Example 38, 2-[6-chloro-4-(4,5,7-trifluorobenzothiazol-2-yl)methyl-3,4-dihydro-3-oxo-2H-1,4-benzoxazin-2-yl]acetic acid]
- Sorbitol accumulation (%) erythrocytes [1, 2]: 24.6** %
- Sorbitol accumulation (%) lens [1, 2]: 44.1** %
- Sorbitol accumulation (%) nerve [1, 2]: 0.0** %

Compound: O=C(O)CC1Oc2ccccc2N(Cc2nc3c(F)c(F)cc(F)c3s2)C1=O (stereo not drawn) [Example 30, 2-[4-(4,5,7-trifluorobenzothiazol-2-yl)methyl-3,4-dihydro-3-oxo-2H-1,4-benzoxazin-2-yl]acetic acid]
- Sorbitol accumulation (%) erythrocytes [1, 2]: 22.2** %
- Sorbitol accumulation (%) lens [1, 2]: 45.2** %
- Sorbitol accumulation (%) nerve [1, 2]: 1.0** %
